RP-LC retention time data for 80 compounds are collected here from the METLIN SMRT retention time set (Domingo-Almenara et al. 2019).

The nature of the data set: gradient 5% acetonitrile 3 min, to 50% in 2 min, to 85% in 15 min, held 3 min, 100 µL/min. The following applies: column: Zorbax Extend-C18 2.1 x 50 mm; eluents: water / acetonitrile, 0.1% formic acid. The method in brief:
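A Zorbax Extend-C18 column (2.1 × 50 mm, 1.8 μm) run at 100 μL/min with water and acetonitrile, both containing 0.1% formic acid, separated mixtures of ~100 pure standards. The HPLC was coupled to a quadrupole time-of-flight mass spectrometer operated in positive and negative ionization mode, with dead and dwell volumes of 40 μL and 900 μL. Each retention time was taken from a computationally picked adduct peak that was then manually inspected.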
In turn, `O=C(COc1ccccc1F)N1CCN(Cc2nc(C3CC3)cs2)CC1` showed an RP-LC retention time of 640 s.

`Cc1ncc2c(n1)CCN(S(=O)(=O)c1ccc(Br)s1)C2` came in with an RP-LC retention time of 778 s.

With `CC(C)CCNC(=O)C1(C)Cn2nc(C(=O)NCc3ccccc3Cl)cc2C(=O)N1C` (stereo not given), the RP-LC retention time turned out to be 814 s.

For `Cn1c(=O)n(C)c2cc(Nc3cc(N4CCOCC4)ncn3)ccc21`, the RP-LC retention time was found to be 566 s.

The compound `Fc1cccc(-c2noc(Cc3nc(-c4ccccc4Cl)cs3)n2)c1` yielded an RP-LC retention time of 1260 s.

In the case of `NC(=O)c1ccc(Cl)c2ccccc12`, the RP-LC retention time was determined as 777 s.

Take `COc1ccc([N+](=O)[O-])cc1NS(=O)(=O)c1ccc(C)cc1`: the RP-LC retention time stood at 961 s.

Regarding `COc1cccc(C(=O)NCCCc2ccc(N(C)C)cc2)c1OC`, the RP-LC retention time stood at 574 s.

For `Cc1ccc(N2CCC(NC(=O)Nc3ccc(C)cc3C)C2=O)cc1` (stereo not given), the RP-LC retention time turned out to be 875 s.

`COc1cccc(C(=O)NC2CCN(c3ccc(F)cc3)C2=O)c1` (stereo not given): the RP-LC retention time was determined as 756 s.

Compound `O=C(COc1ccccc1)N1CCCC(COc2ccc(C(=O)N3CCCC3)cc2)C1` (stereo not given) registered an RP-LC retention time of 808 s.

As for `CCN(CC)S(=O)(=O)c1ccc2c(c1)CC(C(=O)NCCN(C)C)N2C(C)=O` (stereo not given), the RP-LC retention time turned out to be 645 s.

For the compound `O=S(=O)(Nc1ccc(F)cc1)c1cccnc1Nc1ccccc1`, the RP-LC retention time was 1050 s.

Regarding `CCOc1ccc(NC(=O)Cn2c(CC)nc3c(c2=O)CN(Cc2ccccc2)CC3)cc1`, the RP-LC retention time was 666 s.

In turn, `Cc1ccc(NC(=O)N2CCCC(Cn3cnc4cccnc43)C2)c(Cl)c1` (stereo not given) returned an RP-LC retention time of 682 s.

The compound `CC1=C(c2ccccc2)S(=O)(=O)N=C1N1CCCN(C(=O)c2cccs2)CC1` had an RP-LC retention time of 770 s.

Regarding `CC(=O)N1CCc2cc(-c3ccc(C(=O)N4CCN(Cc5ccc6c(c5)OCO6)CC4)cc3)ccc21`, the RP-LC retention time was 647 s.

In turn, `Cc1ccc(NC(=O)N2CCc3nc(-c4ccccc4)ncc3C2)cc1F` registered an RP-LC retention time of 988 s.

`O=C1CC(C(=O)N(Cc2cccnc2)c2nc3ccccc3s2)CN1c1ccccc1` (stereo not given): the RP-LC retention time amounted to 695 s.

For `CCNC(=O)c1nc2ccccc2n(CC)c1=O`, the RP-LC retention time turned out to be 659 s.

`COc1ccc(C(=O)NCc2ccc3c(c2)ncn3C(C)C)cn1`: the RP-LC retention time was 597 s.

`O=C(C1CCCN(c2nnc(-n3cccc3)s2)C1)N1CCN(c2ccc(F)cc2)CC1` (stereo not given) yielded an RP-LC retention time of 950 s.

`O=C(NC1CC1)C1CCCN(S(=O)(=O)c2cc(-c3noc(C4CCCC4)n3)cs2)C1` (stereo not given) registered an RP-LC retention time of 972 s.

Regarding `Cc1ccc(C)c(NC(=O)Cc2nnc(-c3ccc4ncccc4c3)o2)c1`, the RP-LC retention time is 736 s.

`Cc1oc(-c2ccc(C(=O)NCCc3ccco3)cc2)nc1CN1CCc2ccccc21`: the RP-LC retention time came to 1050 s.

Regarding `CC1CCCN(C(=O)c2csc(-c3ccc(N4CCCC4)nc3)n2)C1` (stereo not given), the RP-LC retention time is 660 s.

`CC1CCN(C(=O)C2c3ccccc3CCN2C(=O)C(C)C)CC1` (stereo not given) came in with an RP-LC retention time of 883 s.

The compound `COCCCNC(=O)N1CCCCCC1c1ccccc1Cl` (stereo not given) returned an RP-LC retention time of 933 s.

`O=C1CC(c2nc3ccccc3n2CCN2CCOCC2)CN1Cc1ccc(F)cc1` (stereo not given) displayed an RP-LC retention time of 612 s.

The compound `O=C(CN1CCC2(CC1)N=C(c1ccc(Cl)cc1)C(=O)N2)Nc1cc(F)ccc1F` had an RP-LC retention time of 696 s.

With `Cc1ccc(S(=O)(=O)N2CCCC(Cn3cnc4cccnc43)C2)c(C)c1` (stereo not given), the RP-LC retention time worked out at 821 s.

Consider `O=c1c(=O)n(-c2ccccc2)ccn1Cc1nc(-c2ccc(F)c(Cl)c2)no1`, for which the RP-LC retention time came out at 894 s.

`COc1ccccc1CN1C[C@@H]2C(=O)N(Cc3ccc4c(c3)OCO4)C(=O)[C@@H]2C1`: the RP-LC retention time was 724 s.

Compound `COc1ccc(NC(=O)Cn2nc(N3CCSCC3)c3ccccc3c2=O)cc1` yielded an RP-LC retention time of 1180 s.

The compound `COc1cccc(CNC(=O)c2cn(-c3cc(N4CCOCC4)ncn3)cn2)c1` had an RP-LC retention time of 752 s.

As for `O=C(NCc1ccco1)C1CCCN(c2ncccc2-c2noc(C3CCC3)n2)C1` (stereo not given), the RP-LC retention time was 872 s.

The compound `CN(C)S(=O)(=O)N1CC(c2noc(-c3cccnc3)n2)C2(CCOCC2)C1` (stereo not given) showed an RP-LC retention time of 713 s.

For `c1ccc(CN2CCN(c3c4c(nc5nc(-c6ccccc6)nn35)CCCC4)CC2)cc1`, the RP-LC retention time worked out at 668 s.

As to `O=C1COc2cc(Cl)ccc2N1Cc1nc(-c2cccc(F)c2)no1`, the RP-LC retention time is 1100 s.

Compound `COc1ccc(Cl)cc1S(=O)(=O)N1CCCC(C(=O)NCc2ccccn2)C1` (stereo not given) gave an RP-LC retention time of 660 s.

`O=C(C1=CN(c2ccc3c(c2)OCO3)c2ccccc2S1(=O)=O)N1CCCCC1`: the RP-LC retention time is 780 s.

As for `COCCNC(=O)c1ccc2c(c1)N(Cc1ccc(F)cc1)C(=O)CO2`, the RP-LC retention time was 717 s.

In turn, `CCOc1ccc(C2NC(=O)NC(C)=C2C(=O)OC2CCCC2)cc1OC` (stereo not given) registered an RP-LC retention time of 770 s.

As for `CCCNC(=O)C1CCN(c2ccc(SCC(=O)Nc3cc(F)cc(F)c3)nn2)CC1`, the RP-LC retention time stood at 665 s.

Consider `O=C(CN1C(=O)C2CCCCN2c2ccc(S(=O)(=O)N3CCCC3)cc21)NCc1cccnc1` (stereo not given), for which the RP-LC retention time stood at 646 s.

With `CCc1ccccc1Nc1c(-c2nc(C)no2)cnc2nc(C)ccc12`, the RP-LC retention time was found to be 826 s.

On to `COCCNc1nc(-c2cccc(Cl)c2)nnc1C`, for which the RP-LC retention time is 657 s.

The compound `Cc1ccc2nc(C)cc(C(=O)NC3CCCC3)c2c1` gave an RP-LC retention time of 610 s.

On to `c1ccc(-c2noc(-c3cc(N4CCOCC4)nc4ccccc34)n2)cc1`, for which the RP-LC retention time amounted to 1240 s.

In turn, `CC(C)Oc1ccc(CN2C(=O)C3(CCOCC3)CC2c2nnnn2C(C)(C)C)cc1` (stereo not given) registered an RP-LC retention time of 875 s.

`O=C1C[C@@H]2OCC=C3C[N+]4([O-])CC[C@]56c7ccccc7N1[C@H]5[C@H]2[C@H]3C[C@@H]64` (stereo not given in full) registered an RP-LC retention time of 639 s.

For the compound `O=C(Cn1nc2c3sc(N4CCCC4)nc3ncn2c1=O)Nc1ccc(F)cc1`, the RP-LC retention time stood at 718 s.

Take `CCOc1nc2ccccc2nc1N1CCCC(C(=O)N2CCN(C)CC2)C1` (stereo not given): the RP-LC retention time was found to be 646 s.

`CCc1cccc(C)c1NC(=O)Cn1nc(N2CCOCC2)c2ccccc2c1=O` displayed an RP-LC retention time of 809 s.

On to `c1ccc(-n2ncc3c(NCc4ccc5c(c4)OCO5)ncnc32)cc1`, for which the RP-LC retention time amounted to 877 s.

In the case of `CCCCCn1c(=O)c2ccccc2n(Cc2nc(-c3cc(OC)c(OC)c(OC)c3)no2)c1=O`, the RP-LC retention time was 646 s.

Turning to `CCn1c(=O)c2c(C(=O)N3CCN(c4ccccn4)CC3)cc(=O)n(CC)c2n(C)c1=O`, the RP-LC retention time worked out at 617 s.

`COC(=O)C[C@](O)(CCCC(C)(C)O)C(=O)O[C@@H]1C(OC)=C[C@]23CCCN2CCc2cc4c(cc2[C@H]13)OCO4`: the RP-LC retention time was found to be 662 s.

The compound `O=C(Nc1cccc(Cl)c1)c1c(O)c2cccnc2n(-c2cccc(F)c2)c1=O` registered an RP-LC retention time of 1360 s.

In turn, `CCSCCOC(=O)C1=C(C)NC2=C(C(=O)CCC2)C1c1ccccc1OC` (stereo not given) showed an RP-LC retention time of 727 s.

`Cc1cc(NC(=O)c2ccco2)c2cc(F)cc(F)c2n1` displayed an RP-LC retention time of 668 s.

`COc1cc(OC)c(NC(=O)N2CCC3(C2)c2nc[nH]c2CCN3C)cc1Cl` (stereo not given) returned an RP-LC retention time of 569 s.

`Cc1ccc2ccc(C#N)cc2c1O` came in with an RP-LC retention time of 892 s.

In turn, `CCc1nc2ccccc2c(=O)n1Cc1noc(-c2ccc(F)cc2)n1` came in with an RP-LC retention time of 998 s.

As for `CCS(=O)(=O)N1CC(=O)N(c2cccc(C)c2C)C(C)(C(=O)NCc2ccccc2)C1` (stereo not given), the RP-LC retention time came to 807 s.

Regarding `COc1ccc(-c2noc(Cc3nnc(-c4ccc(C)c(C)c4)o3)n2)cc1`, the RP-LC retention time amounted to 1090 s.

In turn, `CC(C)CC(=O)N1CCN(c2ccc(=O)n(-c3cccc(Cl)c3)n2)CC1` had an RP-LC retention time of 829 s.

Consider `Cc1ccc(S(=O)(=O)N2CCC(CCNC(=O)NC3CCCC3)CC2)cc1`, for which the RP-LC retention time was 894 s.

`CN(C)S(=O)(=O)c1ccc(C(=O)NCc2ccsc2)cc1` came in with an RP-LC retention time of 730 s.

In the case of `Cc1nn(-c2ccc(C(=O)NC3CCCC3)cn2)c(C)c1C`, the RP-LC retention time came out at 907 s.

With `CC(C)(C)c1ccc(S(=O)(=O)N2CCCCC2C(=O)N2CCN(c3ccc(F)cc3)CC2)cc1` (stereo not given), the RP-LC retention time worked out at 1230 s.

Regarding `COc1ccccc1NC(=O)Cn1nc2c(N3CCCCCC3)nccn2c1=O`, the RP-LC retention time was 696 s.

`CC(C)NC(=O)CSc1nnc2c3cc(-c4ccc(F)cc4)nn3ccn12`: the RP-LC retention time is 735 s.

For `Cn1c(C(N)=O)c(N2CCCC2=O)c2cc(F)ccc21`, the RP-LC retention time amounted to 669 s.

As to `Cc1ccsc1CN1CCc2oc(C)c(C(=O)N3CCOCC3)c2C1`, the RP-LC retention time was determined as 536 s.

In turn, `N#Cc1cccc(-c2cn3c(n2)N(C(=O)C2CCCO2)CCC3)c1` (stereo not given) had an RP-LC retention time of 703 s.

Take `COc1ccc(-c2nnc(CC(=O)NC3CCCCCC3)o2)cc1`: the RP-LC retention time was determined as 780 s.

With `CC1CCCCN1CCCNC(=O)CN1C(=O)CSc2cccn2-c2ccccc21` (stereo not given), the RP-LC retention time amounted to 651 s.

`CCCCCC(=O)N1CCCCC1` had an RP-LC retention time of 909 s.

`CC1=C(c2ccccc2)S(=O)(=O)N=C1N1CCCN(C(=O)C2CCC2)CC1` yielded an RP-LC retention time of 769 s.
